Patent US20210221784A1, “COMPOUNDS AND COMPOSITIONS FOR THE TREATMENT OF PAIN” (Université de Strasbourg, priority 2018, published 2021)

Legend:
hNPFF1R = target: T1, hNPFF1R (Homo sapiens, UniProt Q9GZQ6); assay: Glo Sensor cAMP assay in HEK-293 expressing hNPFF1R; type: cell-based
T1 construct: expressed in transfected cells
Procedure: (§1) The functional characterization of the selected compounds was performed by Glo Sensor cAMP kinetic assay, a validated approach for measuring Gαi/s activation by GPCRs (DiRaddo et al., 2014; Gilissen et al., 2015). HEK-Glo cells expressing either NPFF1 or NPFF2 receptors were suspended (10^6 cells per mF) in physiological Hepes buffer (10 mM HEPES, 0.4 mM NaH2PO4, 137.5 mM NaCl, 1.25 mM MgCl2, 1.25 mM CaCl2, 6 mM KCl, 10 mM glucose and 1 mg/mF bovine serum albumin, pH 7.4) supplemented with 1 mM D-Fuciferine. After equilibration for 2 h at 25° C., luminescence levels were recorded in real time in 96-well plates using a Flexstation^R 3 (Molecular Devices, Sunnyvale Calif., USA). Non-specific effect of the different compounds was evaluated in HEK-Glo cells without any recombinant human RF-amide receptors. To test the agonist activity on NPFF1R and NPFF2R, compounds were injected 15 minutes before addition of forskolin (0.5 μM) and readings were pursued for 90 minutes. To evaluate their antagonist properties, compounds were pre-incubated with cells for 15 minutes before prototypical agonists for NPFF1R (RFRP-3) and NPFF2R (NPFF) receptors. According to their preferential coupling to Gi/o proteins, the stimulation of NPFF1R and NPFF2R by agonists was monitored as a dose-dependent reduction in steady-state luminescence levels, reflecting the inhibition of forskolin-induced cAMP accumulation. Experiments were performed at 25° C. in the presence of 0.5 mM IBMX to prevent the degradation of cAMP by phosphodiesterases.

hNPFF2R = target: T2, hNPFF2R (Homo sapiens, UniProt Q9Y5X5); assay: Glo Sensor cAMP assay in HEK-293 expressing hNPFF2R; type: cell-based; settings: cells expressing hNPFF2R; forskolin 0.5 μM
T2 construct: expressed in transfected cells
T2 sequence (Q9Y5X5 whole entry): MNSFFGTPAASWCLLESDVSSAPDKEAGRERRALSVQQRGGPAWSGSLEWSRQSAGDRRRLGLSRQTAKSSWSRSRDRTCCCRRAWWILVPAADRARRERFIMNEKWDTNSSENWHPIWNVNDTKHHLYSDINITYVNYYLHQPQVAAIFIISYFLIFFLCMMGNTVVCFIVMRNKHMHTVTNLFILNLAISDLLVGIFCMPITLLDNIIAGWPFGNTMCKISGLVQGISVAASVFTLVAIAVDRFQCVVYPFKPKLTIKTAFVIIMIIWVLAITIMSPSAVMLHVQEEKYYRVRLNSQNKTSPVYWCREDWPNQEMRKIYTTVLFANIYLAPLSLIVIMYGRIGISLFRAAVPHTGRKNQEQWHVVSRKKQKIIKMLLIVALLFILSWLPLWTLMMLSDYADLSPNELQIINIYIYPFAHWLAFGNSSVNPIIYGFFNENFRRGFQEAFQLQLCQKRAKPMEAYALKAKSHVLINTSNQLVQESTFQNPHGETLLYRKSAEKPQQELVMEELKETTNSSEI
Procedure: as §1, with “To evaluate their antagonist properties, compounds were pre-incubated with cells for 15 minutes before prototypical agonists for NPFF1R (RFRP-3) and NPFF2R (NPFF) receptors.” left out, “Experiments were performed at 25° C. in the presence of 0.5 mM IBMX to prevent the degradation of cAMP by phosphodiesterases.” left out

[1] = target: T3, human NPFFR1 (hNPFFR1) receptor (Homo sapiens, UniProt Q9GZQ6); assay: Human NPFFR1 evaluation using BRET biosensors in HEK-293 T cells; type: cell-based; settings: hNPFFR1 in HEK-293 T cells, stimulated by EC80 RFRP-3, read-out: IC50 of antagonist activity
T3 construct: expressed in transfected cells; host or cells: HEK-293 T cells, transient co-transfection
T3 sequence (Q9GZQ6 whole entry): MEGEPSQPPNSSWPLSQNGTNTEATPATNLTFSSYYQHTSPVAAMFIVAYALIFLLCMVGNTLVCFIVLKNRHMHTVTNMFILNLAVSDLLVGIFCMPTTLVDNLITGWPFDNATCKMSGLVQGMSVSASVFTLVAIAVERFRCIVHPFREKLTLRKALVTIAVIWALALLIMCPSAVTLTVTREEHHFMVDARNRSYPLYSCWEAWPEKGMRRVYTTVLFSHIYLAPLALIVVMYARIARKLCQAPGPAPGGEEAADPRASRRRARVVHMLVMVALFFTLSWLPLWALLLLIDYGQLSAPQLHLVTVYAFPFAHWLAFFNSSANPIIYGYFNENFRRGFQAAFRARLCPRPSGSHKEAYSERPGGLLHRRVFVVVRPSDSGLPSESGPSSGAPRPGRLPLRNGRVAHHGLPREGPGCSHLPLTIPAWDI
Method in brief: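 HEK-293 T cells transiently co-expressing hNPFFR1, GαoB and a Gi-effector BRET biosensor pair; agonist read after 10 min compound alone, then antagonism after EC80 RFRP-3 for 10 min. IC50 from 20-point curves over 6 logs, duplicates in two independent experiments.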

C57BF6/N male mice = assay: Neuropathic pain model (chronic constriction injury), Von Frey test; type: in vivo
hNPFFR1 = target: T4, hNPFFR1 (Homo sapiens, UniProt Q9GZQ6); assay: Radioligand binding competition, membranes from CHO cells expressing hNPFFR1; settings: 0.015 nM [D-Tyr1[125I], N-MePhe3]-NPFF, 1 hr at 25° C., read-out: NPFF1-R Ki
T4 construct: expressed in transfected cells; membranes
T4 sequence (Q9GZQ6 whole entry): as above
Method in brief: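 CHO membranes (5–10 μg protein) stably expressing hNPFFR1 or hNPFFR2 incubated 1 h at 25 °C with 0.015 nM [D-Tyr1[125I], N-MePhe3]-NPFF in HEPES pH 7.4 with Ca2+, Mg2+, 0.1% BSA. Non-specific binding defined with 10 μM RFRP-3; bound radioactivity counted after GF/B filtration.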

[2] = Solubility in dosing vehicle; type: physicochemical; settings: Tween 80 (0.5%) or Kolliphor EL (10%)

T1 sequence (Q9GZQ6 whole entry): as above

In the case of `Nc1ccc(-c2cccc(Cl)c2Cl)c(N)n1` [Compound 1j, 3-(2,3-dichlorophenyl)pyridine-2,6-diamine], the “antagonist activity: effect on dose response curve of NPVF (RFRP-3), forskolin-stimulated cAMP” value (hNPFF1R; HEK-293 cells expressing hNPFF1R, FIG. 7) is reported as “efficiently shifted to the right the dose response curve of NPVF”, the “effect of compound tested alone (agonist activity)” value (hNPFF1R; cells expressing hNPFF1R, forskolin 0.5 μM) is reported as “had no effect” and the “effect of compound tested alone (agonist activity)” value (hNPFF2R) is reported as “had no effect”. The IC50 [1] was 100 to 500 nM, the “mechanical allodynia after CCI (allodynia index d11-d21), drug alone” value (C57BF6/N male mice; morphine 3 mg/kg sc. alone or 1j 5 mg/kg p.o. alone, FIG. 4B) was “significantly attenuated the mechanical allodynia” and the “mechanical allodynia after CCI (allodynia index d11-d21), pre-treatment before morphine” value (C57BF6/N male mice; mouse, in vivo) was “significantly enhanced morphine analgesia effect on neuropathic pain”. For the same molecule, the Ki (hNPFFR1) was 20 ± 2 nM and the “solubility in vehicle (Kolliphor EL vs Tween 80)” value [2] was “better solubility in Kolliphor EL”.
